Experimental data published in patent publication US10722520B2, “Heterocyclic compounds and their use in preventing or treating bacterial infections” (MUTABILIS, priority 2016, dated 2020).

Tests used:
[1] = system: E. cloacae P99; assay: MIC of compound alone, broth microdilution; type: cell-based; conditions: strain P99; compound alone
Summary of the method: (§1)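 Growth inhibition was scored by eye after 16-20 h at 35° C (room air), with bacteria from log phase seeded at 5×10^5 cfu/mL final in cation-adjusted Mueller-Hinton medium.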

[2] = system: E. coli 190317; assay: MIC of compound alone, broth microdilution; type: cell-based; conditions: strain 190317; compound alone
Summary of the method: as §1

[3] = system: K. pneumoniae 6299; assay: MIC of compound alone, broth microdilution; type: cell-based; conditions: strain 6299; compound alone
Summary of the method: as §1

[4] = system: K. pneumoniae BAA-1898; assay: MIC of compound alone, broth microdilution; type: cell-based; conditions: strain BAA-1898; compound alone
Summary of the method: as §1

[5] = system: P. aeruginosa CIP107051; assay: MIC of compound alone, broth microdilution; type: cell-based; conditions: strain CIP107051; compound alone
Summary of the method: as §1

[6] = system: E. cloacae P99; assay: MIC of ceftazidime (CAZ) at fixed concentration of compound (synergy), broth microdilution; type: cell-based; conditions: strain P99; MIC of CAZ, compound fixed at 4 μg/mL
Procedure: (§2) Log phase bacterial suspensions were adjusted to a final density of 5×10^5 cfu/mL in cation-adjusted Mueller-Hinton broth (Becton-Dickinson) and added to each well (98 μL). Microplates were incubated for 16-20 h at 35° C. in ambient air. The MIC of the compounds was defined as the lowest concentration of said compounds that prevented bacterial growth as read by visual inspection.

[7] = system: E. coli 190317; assay: as above; type: cell-based; conditions: strain 190317; MIC of CAZ, compound fixed at 4 μg/mL
Procedure: as §2

[8] = system: K. pneumoniae 6299; assay: as above; type: cell-based; conditions: strain 6299; MIC of CAZ, compound fixed at 4 μg/mL
Procedure: as §2

[9] = system: K. pneumoniae BAA-1898; assay: as above; type: cell-based; conditions: strain BAA-1898; MIC of CAZ, compound fixed at 4 μg/mL
Procedure: as §2

[10] = system: P. aeruginosa CIP107051; assay: as above; type: cell-based; conditions: strain CIP107051; MIC of CAZ, compound fixed at 4 μg/mL
Procedure: as §2

[11] = target: AmpC (P99) (Enterobacter cloacae, UniProt P05364); conditions: read-out: IC50 β-lactamase AmpC (P99); class (C); nitrocefin 200 μM, 30-min pre-incubation, enzyme 0.2 nM
[12] = target: CMY-37 (Citrobacter freundii, UniProt P05193); conditions: read-out: IC50 β-lactamase CMY-37; class (C); nitrocefin 200 μM, 30-min pre-incubation, enzyme 0.2 nM
[13] = target: AmpC (PAE) (Pseudomonas aeruginosa, UniProt P24735); conditions: read-out: IC50 β-lactamase AmpC (PAE); class (C); nitrocefin 200 μM, 30-min pre-incubation, enzyme 0.4 nM
[14] = target: OXA-15 (Pseudomonas aeruginosa, UniProt Q51574); conditions: read-out: IC50 β-lactamase OXA-15; class (D); nitrocefin 200 μM, 30-min pre-incubation, enzyme 0.4 nM
[15] = target: TEM-1 (Escherichia coli, UniProt P62593); conditions: read-out: IC50 β-lactamase TEM-1; class (A); nitrocefin 200 μM, 30-min pre-incubation, enzyme 0.1 nM
[16] = target: SHV-1 (Klebsiella pneumoniae, UniProt P0AD64); conditions: read-out: IC50 β-lactamase SHV-1; class (A); nitrocefin 200 μM, 30-min pre-incubation, enzyme 0.075 nM
[17] = target: CTX-M-15 (Escherichia coli, UniProt Q9EXV5); conditions: read-out: IC50 β-lactamase CTX-M-15; class (A); nitrocefin 200 μM, 30-min pre-incubation, enzyme 0.4 nM
[18] = target: KPC-2 (Klebsiella pneumoniae, UniProt Q9F663); conditions: read-out: IC50 β-lactamase KPC-2; class (A); nitrocefin 200 μM, 30-min pre-incubation, enzyme 1 nM
[19] = target: OXA-1 (Escherichia coli, UniProt P13661); conditions: read-out: IC50 β-lactamase OXA-1; class (D); nitrocefin 200 μM, 30-min pre-incubation, enzyme 0.2 nM
[20] = target: OXA-11 (Pseudomonas aeruginosa, UniProt Q06778); conditions: read-out: IC50 β-lactamase OXA-11; class (D); nitrocefin 200 μM, 30-min pre-incubation, enzyme 1.2 nM
[21] = target: OXA-48 (Klebsiella pneumoniae, UniProt Q6XEC0); conditions: read-out: IC50 β-lactamase OXA-48; class (D); nitrocefin 200 μM, 30-min pre-incubation, enzyme 0.3 nM

SMILES | MIC compounds of the invention alone [1] [µg/mL] | MIC compounds of the invention alone [2] [µg/mL] | MIC compounds of the invention alone [3] [µg/mL] | MIC compounds of the invention alone [4] [µg/mL] | MIC compounds of the invention alone [5] [µg/mL] | MIC combination of CAZ and compounds of the invention at 4 μg/mL [6] [µg/mL] | MIC combination of CAZ and compounds of the invention at 4 μg/mL [7] [µg/mL] | MIC combination of CAZ and compounds of the invention at 4 μg/mL [8] [µg/mL] | MIC combination of CAZ and compounds of the invention at 4 μg/mL [9] [µg/mL] | MIC combination of CAZ and compounds of the invention at 4 μg/mL [10] [µg/mL] | IC50 [11] [nM] | IC50 [12] [nM] | IC50 [13] [nM] | IC50 [14] [nM] | IC50 [15] [nM] | IC50 [16] [nM] | IC50 [17] [nM] | IC50 [18] [nM] | IC50 [19] [nM] | IC50 [20] [nM] | further results
O=C1N2CC(n3cc(S(=O)(=O)NCCO)cn3)=CC(C2)N1OS(=O)(=O)[O-].[Na+] (stereo not drawn) [Example 74, sodium [3-[4-(2-hydroxyethylsulfamoyl)pyrazol-1-yl]-7-oxo-1,6-diazabicyclo[3.2.1]oct-3-en-6-yl]sulfate] | 16 | 8 | 16 | 16 | >32 | 0.5 | ≤0.25 | ≤0.25 | 0.25 | 8 | 9.5 | 25 | 110 | 48 | 0.34 | 2.2 | 1.1 | 3 | 22 | 20 | IC50 [21]: 2.9 nM
O=C1N2CC(n3ccc(-c4ncco4)n3)=CC(C2)N1OS(=O)(=O)[O-].[Na+] (stereo not drawn) [Example 78] | >32 | >32 | >32 | >32 | >32 | 8 | 0.5 | 2 | 16 | 8 | 14 | 29 | 250 | 24 | 0.37 | 1.5 | 0.46 | 2.7 | 64 | 6.5 | IC50 [21]: 3 nM
NCc1cn(C2=CC3CN(C2)C(=O)N3OS(=O)(=O)[O-])nn1.O=C(O)C(F)(F)F.[Na+] (stereo not drawn) [Example 57, sodium and 2,2,2-trifluoroacetate [3-[4-(ammoniummethyl)triazol-1-yl]-7-oxo-1,6-diazabicyclo[3.2.1]oct-3-en-6-yl]sulfate] | 1 | 0.5 | >32 | 16 | 16 | <0.25 | <0.25 | ≤0.25 | ≤0.25 | 4 | 21 | 31 | 550 | 6.4 | 0.37 | 2.6 | 0.75 | 11 | 66 | 170 | IC50 [21]: 1.1 nM
